In patent US20220142985A1, “AGENTS FOR TREATMENT OF ALCOHOL USE DISORDER” (SERVICIO ANDALUZ DE SALUD, priority 2018, published 2022):
Blank lines part the entries; values can stand above or below the molecule they belong to.

Tests used:
[1] = tested on: adult male Wistar rats; test: Alcohol self-administration model; assay type: in vivo, rat; conditions: for EC50 for inhibition of alcohol self-administration: acute administration 30 minutes before the session, 10% alcohol, non-linear regression, IC = confidence interval
Experimental: (§1) For the alcohol self-administration studies, 48 adult male Wistar rats (8 per group) (Harlan, Barcelona, Spain) weighing 375-425 g at the start of the experiments were individually housed in a 12-hour light/dark cycle (turned off at 12:00 p.m.) in a room at constant temperature (23±1° C.). Standard food and tap water were available ad libitum in the house cage. The animals were allowed to acclimate to the housing facilities for 2 weeks before the beginning of the alcohol self-administration protocol. For oxycodone self-administration, male Long-Evans rats (275-325 g) (Charles-River Laboratories, Raleigh, N.C.) were used throughout this study. Upon arrival, they were individually housed in a facility for animals under an inverted 12-h light/dark cycle (light turned on at 7:00 p.m.) with free access to food and water. They were allowed to acclimate to the new environment for at least 7 days before the start of the study. For alcohol consumption in the two-bottle choice paradigm, male Wistar rats weighing 250 g at the start of the experiments, or genetically selected Marchigian Sardinian (msP) male rats that prefer alcohol were used.
Animals were trained for the alcohol self-administration as previously described (Cippitelli et al., 2005. Eur J Neurosci. 21 (8):2243-51), in the room (Letica, model LE 850, Panlab, Barcelona, Spain) enclosed in sound-attenuating cages and equipped with an exhaust fan. The chambers were equipped with two retractable levers, one located on each side of a water pan.
The active lever side is equally distributed between sessions to prevent the development of location preferences. […] All the operant alcohol sessions lasted for 30 minutes per day 5 d/week (Monday to Friday). The amount of responses and the immersion presentations were automatically recorded by the computer software. The animals were weighed daily before the alcohol self-administration sessions. Training was carried out using a modification of the conventional saccharin fading method (Samson et al., 1999) described in Alen et al., 2009 (Nicotine Tob Res. 11 (11): 1304-11). For the first 3 days of training, the animals received a 0.2% saccharin solution in the dipper to facilitate the acquisition of the lever pressure level. After that point, the following sequence in a fixed ratio 1 was used: 0.16% saccharin and 2% alcohol for three sessions, 0.12% saccharin and 4% alcohol for three sessions, 0.08% saccharin and 6% alcohol for four sessions, 0.04% saccharin and 8% alcohol for four sessions, 0.02% saccharin plus 10% alcohol, and finally 10% alcohol alone for the remaining sessions. The first investigation was relatively similar, followed by a period of at least 6 weeks with access to alcohol (10% w/v). ciglitazone (0.01, 1.5, and 20 mg/kg), OEA (0.1, 1.5, and 20 mg/kg), WY 14643 (0.1, 5, 20, and 40) mg/kg), rimonabant (0.03, 0.3, 1, and 3 mg/kg), OLHHA (0.01, 0.1, 1, and 5 mg/kg), and NF 10-360 (1 mg/kg). The medicinal products were injected 30 minutes before the self-administration session. The animals were then left for a period of 24 hours, and then 30 minutes daily. The EtOH self-administration sessions were resumed and monitored.
(§2) GraphPad Prism v5.04 (GraphPad Software, San Diego, Calif., USA). Data was represented by means±SEM. EC50 values for the inhibition of alcohol, cocaine, or oxycodone self-administration were calculated using built-in non-linear regression equations. Supplementation with alcohol and the analysis of the effects of variability (ANOVA) with repeated measures (factors: treatment and treatment). Plasma metabolic parameters, cytokines, and liver mRNA resulting from the circulation expression were analyzed by means of a two-way ANOVA (factors: treatment (vehicle/OLHHA) and access to beverage ([…]/water)), and a multiple post hoc comparison test (Bonferroni) was performed. The p-value less than 0.05 was considered to be statistically significant.

[2] = tested on: Wistar rats; test: Alcohol consumption in the two-bottle choice model (Wistar rats, 10% alcohol); assay type: in vivo, rat; conditions: 1 mg/kg, P<0.05, FIG. 2A
Experimental: as §1
Voluntary alcohol intake was evaluated in a two-bottle choice test, as previously described [Stopponi et al., 2011. […] Intakes were recorded daily 2, 8, and 24 hours after the administration of OLHHA. Alcohol, water, and food intake were monitored daily. […]

[3] = tested on: Marchigian Sardinian (msP) male rats; test: Alcohol consumption in the two-bottle choice model (msP rats that prefer alcohol, 20% alcohol); assay type: in vivo, rat; conditions: 5 mg/kg daily
Experimental: as §1
(§3) Voluntary alcohol intake was evaluated in a two-bottle choice test, as previously described [Stopponi et al., 2011. Biol Psychiatry. 69(7):642-]. Wistar rats or rats selected due to their alcohol preference (msP) were trained to drink water, 10% alcohol (v/v) (Wistar), or 20% alcohol (msP) for 24 hours per day until reaching a stable alcohol intake baseline. At this point, the rats were divided into different groups (n=9-10/group) to be treated with vehicle, NF 10-360 (0 or 1 mg/kg), or OLHHA (5 mg/kg). In the case of msP rats, treatment with OLHHA continued for 14 consecutive days, and the drug or vehicle was administered once a day before the start of the dark period of the light/dark cycle. Intakes were recorded daily 2, 8, and 24 hours after the administration of OLHHA. Alcohol, water, and food intake were monitored daily. The animals were sacrificed on day 14, 2 hours after the last administration of OLHHA.

[4] = tested on: Long-Evans rats; test: Oxycodone self-administration; assay type: in vivo, rat; conditions: FIG. 3G
Experimental: as §1, with “used. […]” for “used.”
Oxycodone self-administration is carried out in an operant chamber with two response levers and a 15 W house light (Med Associates Inc., Georgia, Vt., USA). […] The response of each animal has been recorded throughout the entire training and testing process. […]

[5] = Plasma metabolite and cytokine measurements after repeated OLHHA in msP rats; assay type: in vivo; conditions: 5 mg/kg daily
Experimental: as §3
(§4) The rats were sacrificed 2 hours after the last dose. Treated animals and animals treated with OLHHA were anesthetized with sodium pentobarbital (50 mg kg-1, i.p.), and blood and liver samples were taken. The blood was centrifuged (2100 g for 8 min, 4° C.) and the plasma was kept for later analysis. The liver samples were rapidly frozen in liquid N^2 and stored at −80° C. until analysis.
The following metabolites, metabolic hormones, and cytokines were measured in plasma: metabolites glucose, triglycerides, cholesterol, uric acid, urea, creatinine, aspartate transaminase (GOT), alanine transaminase (GPT), interleukin-6, tumor necrosis factor α (TNF-a). They were analyzed in an automatic Hitachi 737 analyzer (Hitachi, Tokyo, Japan) according to the manufacturer's instructions. Levels of leptin, IL-6, and TNF-α were measured using commercial rat enzyme-linked immunosorbent assay kits (Abcam, Cambridge, United Kingdom).
as §2

[6] = tested on: liver mRNA of lipogenic enzymes, cytochrome c oxidase 4 and PPARα; test: Liver mRNA expression by RT qPCR after repeated OLHHA in msP rats; assay type: in vivo, rat; conditions: 5 mg/kg daily
Experimental: as §3, §4
Real-time quantitative polymerase chain reaction (RT qPCR) was used to measure the relative quantification of the mRNA levels of the enzymes and proteins related to the oxidation of hand lipogenic fatty acids, as described in previous studies with OLHHA. [Decara et al., 2015. Dis Model Mech. 8(10): 1213-25]. Total mRNA was isolated using the Trizol® method according to the manufacturer's instructions (Gibco BRL Life Technologies, Baltimore, Md., USA). Resulting cDNA was used as templates for RT qPCR with an iCycler system (BioRad) using the Quanti-Test SYBR Green PCR kit (Qiagen, Hilden, Germany). The […] were provided by Sigma-Proligo (Proligo France SAS, Paris, France). Quantification was performed according to the following criteria [Decara et al., 2015. Dis Model Mech. 8(10): 1213-25]. The absolute values of each sample were normalized to observe β-actin mRNA (constitutive gene), which was used as a standard reference.
as §2, with “Supplementation with alcohol and the analysis of the effects of variability (ANOVA) with repeated measures (factors: treatment and treatment).” left out, “The p-value less than 0.05 was considered to be statistically significant.” left out

EC50 for inhibition of alcohol self-administration [1]: 5.9 (IC=2.7 to 15.7) mg/kg
SMILES: CC1(COc2ccc(CC3SC(=O)NC3=O)cc2)CCCCC1 (stereo not drawn) [ciglitazone]

SMILES: CCCCCNC(=O)c1ccc(NC(=O)c2cccc(CN3C(=O)OC[C@H]3Cc3ccccc3)c2)cc1 [NF 10-360, 3-((4-benzyl-2-oxooxazolidin-3-yl)methyl)-N-(4-(pentylcarbamoyl)phenyl)benzamide]
operant responses to a 10% ethanol solution (alcohol self-administration) ([1]; 1 mg/kg, P<0.01, FIG. 2B): reduced operant responses | voluntary alcohol intake [2]: reduced alcohol intake

SMILES: CCCCCCCC/C=C\CCCCCCCC(=O)NC(C)Cc1ccc(O)c(O)c1 (stereo not drawn) [OLHHA, N-[1-(3,4-dihydroxyphenyl)propan-2-yl]oleamide]
alcohol self-administration tested 24 hours after administration ([1]; 24 hours after administration, FIG. 3B): absence of effects | EC50 for inhibition of alcohol self-administration [1]: 0.2 mg/kg | total alcohol intake recorded throughout treatment ([3]; 14 days, P<0.05, FIG. 3F): reduced significantly | alcohol intake 2 hours after injection ([3]; P<0.0001, FIG. 3C): reduced alcohol intake | alcohol intake 8 h after administration ([3]; P<0.001, FIG. 3D): also observed | alcohol intake after 24 h ([3]; P=0.047, FIG. 3E): virtually disappeared | maximum inhibition of oxycodone self-administration [4]: 45 % of the control responses | EC50 for reduction of oxycodone self-administration ([4]; non-linear regression, IC = confidence interval): 11.3 mg/kg | toxicity: creatinine ([5]; msP rats, FIG. 4F): no impact | inflammation: plasma concentrations of IL-6 ([5]; msP rats, FIG. 4I): no effect | inflammation: plasma concentrations of TNF ([5]; msP rats, FIG. 4J): no effect | toxicity: transaminases ([5]; msP rats, FIGS. 4G and 4H): no impact | circulating triglycerides ([5]; msP rats, P<0.001, FIG. 4B): reduced | circulating cholesterol ([5]; msP rats, P<0.001, FIG. 4C): reduced | circulating uric acid ([5]; msP rats, P<0.01, FIG. 4D): reduced | glucose levels ([5]; rats exposed to alcohol, P<0.02, FIG. 4A): slightly reducing | expression of mRNA of Fasn in liver ([6]; P<0.001, FIG. 4M): inhibited | expression of PPAR receptor in liver ([6]; P<0.001, FIG. 4O): increased | expression of mRNA of SCD1 in liver ([6]; P<0.01): inhibited | expression of cytochrome c oxidase 4 in liver ([6]; P<0.01, FIG. 4N): increased

EC50 for inhibition of alcohol self-administration [1]: 0.5 (IC=0.5 to 1.1) mg/kg
SMILES: Cc1c(C(=O)NN2CCCCC2)nn(-c2ccc(Cl)cc2Cl)c1-c1ccc(Cl)cc1 [Rimonabant, rimonabant]
maximum inhibition of alcohol self-administration (rank among reference ligands) ([1]; reference ligands, FIG. 1): achieved maximum inhibition

EC50 for inhibition of alcohol self-administration [1]: 23.6 (IC=11.3 to 60.9) mg/kg
SMILES: Cc1cccc(Nc2cc(Cl)nc(SCC(=O)O)n2)c1C [WY14643, pirinixic acid]

EC50 for inhibition of alcohol self-administration [1]: 6.5 (IC=3.2 to 13.2) mg/kg
SMILES: CCCCCCCC/C=C\CCCCCCCC(=O)NCCO [OEA, oleoylethanolamide]
